Consider 20 compounds from patent US20210355104A1, “ADENOSINE RECEPTOR BINDING COMPOUNDS” (Nikang Therapeuticsm Inc., priority 2018, published 2021).

Values joined by “and” are separate entries in the source; they are usually repeats but may differ in a detail not shown here. Equal entries are not always repeated. Where two headings read alike, the source gives them in different places.

Assay [1] has as its system p-CREB (phosphorylated cAMP response-element binding protein) in human whole blood. Description: p-CREB assay in human whole blood by flow cytometry (NECA stimulation, CD4 staining). The format is cell-based. The procedure:
Assay protocol for p-CREB (phosphorylated cAMP response-element binding protein) in human whole blood by flow cytometry
Fresh human whole blood (Biological Specialty Corporation) was added at 100 ul per wellinto a 96-well plate and treated with test compounds (Serial dilutions of 1:3 with starting concentration at 30 uM, 11 concentrations total, in the presence of adenosine deaminase) for one hour at room temperature on a plate shaker. Then 10 ul of 10× NECA (50 uM stock in PBS) and 10 ul of 10 × Rolipram (50 uM stock in PBS) were added, with designated wells for unstimulated (Rolipram+DMSO) and stimulated (Rolipram+NECA+DMSO) conditions. The plates were mixed well and incubated at room temperature for 30 min on a plate shaker. 1× lyse/Fix buffer (5× stock, BD #558049) was warmed to 37° in a water bath. 1200 ul of pre-warmed 1× lyse/Fix buffer was then added to the plate, which was then sealed and mixed by inverting the plate a few times. The plate was then incubated for 30 min at 37° in a water bath. After incubation, the plate was centrifuged at 1600 rpm for 5 min and the supernatant was decanted, then 1200 ul PBS was added and the plate was mixed by inverting a few times followed by centrifuging at 1600 rpm for 5 min and again decanting the supernatant. Then, 200 ul FIX PERM buffer II (BD #558052) was added and the plate was mixed well, then kept on ice for 45 min After spinning the plate at 1600 rpm for 5 min the supernatant was again decanted. Then was added 200 ul staining buffer (BD #554657), and the plate was mixed well and spun at 1600 rpm for 5 min, then the supernatant was again decanted. 200 ul staining buffer was added, the plate was mixed well and the plate was sealed at this step for storage at 4° overnight or until staining. Before staining, the plate was spun at 1600 rpm for 5 min and the supernatant was again decanted. Antibody mix in staining buffer was prepared (75 ul/well, 1:50 dilution for p-CREB antibody from Cell Signaling Tech #14001S, 1:200 dilution for CD4 antibody from BD #566320) and the cells were resuspended in the above antibody mix solution. After mixing well, the plate was incubated (shielded from light) at room temperature for two hours on a plate shaker. It was then spun at 1600 rpm for 5 min and the supernatant was decanted. 200 ul staining buffer was then added to wash cells, and the plate was then mixed by shaking or pipetting. The wash step was repeated at least one more time, and after the final wash, cells were resusptended in 200 ul staining buffer in U bottom plate for flow cytometry analysis.

In assay [2] the target is T1, Adenosine A2A receptor (Homo sapiens, UniProt P29274). Description: cAMP assay in 293A cells stably expressing the adenosine A2A receptor (CGS21680 stimulation, HTRF). Type of assay: cell-based. Details: expressed in transfected cells; host or cells: 293A cells (Invitrogen, Cat# R705-07) infected with A2A-expressing lentivirus (custom packaged by Biosettia), puromycin selected. As to conditions: 293A-A2AR cells, 0.1% BSA.

In assay [3] the target is T1, Adenosine A2A receptor. Description: Adenosine A2A receptor competitive binding assay (Tag-lite HTRF). As to conditions: Tag-lite adenosine A2A receptor ligand binding, HTRF. In short, it runs like this: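 Compound displacement of a red fluorescent antagonist tracer (added at 60 nM stock) from donor-labelled, pre-transfected human A2A cells was read by HTRF after 2 h at room temperature; compound dilutions contained 0.6% DMSO.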

Where [4] appears, read: 1 uM CGS, read-out: cAMP (nM) 0.1% BSA, 1 uM CGS.
Setting [5] is: Homo sapiens, values separated by / are repeat determinations.
[6] abbreviates: 8 nM CGS, values separated by / are repeat determinations, read-out: cAMP (nM) 0.1% BSA, 8 nM CGS.
Setting [7] is: 1 uM CGS, values separated by / are repeat determinations, read-out: cAMP (nM) 0.1% BSA, 1 uM CGS.

T1 sequence (P29274 whole entry): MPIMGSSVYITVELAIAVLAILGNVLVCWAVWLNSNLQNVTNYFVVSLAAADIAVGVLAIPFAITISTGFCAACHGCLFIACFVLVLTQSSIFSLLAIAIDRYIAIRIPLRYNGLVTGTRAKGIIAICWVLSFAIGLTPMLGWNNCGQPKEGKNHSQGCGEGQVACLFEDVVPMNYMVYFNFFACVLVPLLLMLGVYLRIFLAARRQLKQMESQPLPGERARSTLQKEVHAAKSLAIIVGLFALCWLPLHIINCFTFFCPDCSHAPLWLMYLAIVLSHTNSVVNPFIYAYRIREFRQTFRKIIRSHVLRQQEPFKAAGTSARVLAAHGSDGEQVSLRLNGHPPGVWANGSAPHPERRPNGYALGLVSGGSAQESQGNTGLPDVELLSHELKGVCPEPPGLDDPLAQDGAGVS

In the case of `Cc1cc(-c2c(OCc3cccc([C@@H]4C[C@H]4C(=O)O)n3)nc(N)nc2-c2ccc(F)cc2)cc(C(F)F)n1` (relative stereo) [Example 353, (1,2-trans)-2-(6-(((2-amino-5-(2-(difluoromethyl)-6-methylpyridin-4-yl)-6-(4-fluorophenyl)pyrimidin-4-yl)oxy)methyl)pyridin-2-yl)cyclopropane-1-carboxylic acid], the IC50 came out at 374 nM in assay [1] (Homo sapiens) and 1240 nM on Adenosine A2A receptor [2] (setting [4]).
On to `Cc1cc(-c2c(OCc3cccc([C@@H]4C[C@@H]4C(=O)O)n3)nc(N)nc2-c2ccc(F)cc2)cc(C(F)F)n1` (relative stereo) [Example 354, (1,2-cis)-2-(6-(((2-amino-5-(2-(difluoromethyl)-6-methylpyridin-4-yl)-6-(4-fluorophenyl)pyrimidin-4-yl)oxy)methyl)pyridin-2-yl)cyclopropane-1-carboxylic acid], for which the IC50 in assay [1] (Homo sapiens) was 549 nM; on Adenosine A2A receptor [2] (setting [4]) it was 563 nM and 977 nM.
In the case of `CCN(CC)C(=O)COc1nc(N)nc(-c2ccccc2)c1-c1cc(C)nc(C(F)(F)F)c1` [Example 3, 2-((2-amino-5-(2-methyl-6-(trifluoromethyl)pyridin-4-yl)-6-phenylpyrimidin-4-yl)oxy)-N,N-diethylacetamide], the IC50 in assay [1] (setting [5]) is 47 nM; at Adenosine A2A receptor [2] (setting [6]), 0.6 nM; at Adenosine A2A receptor [2] (setting [7]), 69 nM and 24 nM.
Regarding `Cc1cc(-c2c(OCc3nccn3C(C)C)nc(N)nc2-c2ccc(F)cc2)cc(C(F)F)n1` [Example 99, 5-(2-(difluoromethyl)-6-methylpyridin-4-yl)-4-(4-fluorophenyl)-6-((1-isopropyl-1H-imidazol-2-yl)methoxy)pyrimidin-2-amine], the IC50 was 47 nM in assay [1] (setting [5]); 0.064 nM and 0.19 nM at Adenosine A2A receptor [2] (setting [6]); 32 nM and 22 nM at Adenosine A2A receptor [2] (setting [7]).
Regarding `Cc1cc(-c2c(OCc3cc(C(C)(C)O)ccn3)nc(N)nc2-c2ccc(F)cc2)cc(C(F)F)n1` [Example 224, 2-(2-(((2-amino-5-(2-(difluoromethyl)-6-methylpyridin-4-yl)-6-(4-fluorophenyl)pyrimidin-4-yl)oxy)methyl)pyridin-4-yl)propan-2-ol], the figures for the IC50 on Adenosine A2A receptor [3] and at Adenosine A2A receptor [2] (setting [4]) were 9.5 nM and 1320 nM, respectively.
Regarding `CCn1nccc1COc1nc(N)nc(-c2ccc(F)cc2)c1-c1cc(C)nc(C(F)F)c1` [Example 227, 5-(2-(difluoromethyl)-6-methylpyridin-4-yl)-4-((1-ethyl-1H-pyrazol-5-yl)methoxy)-6-(4-fluorophenyl)pyrimidin-2-amine], the IC50 in assay [1] (Homo sapiens) was 17.8 nM; on Adenosine A2A receptor [2] (setting [4]), 29 nM and 97 nM and 71 nM.
For `CCn1ccc(COc2nc(N)nc(-c3ccc(F)cc3)c2-c2cc(C)nc(C(F)F)c2)n1` [Example 228, 5-(2-(difluoromethyl)-6-methylpyridin-4-yl)-4-((1-ethyl-1H-pyrazol-3-yl)methoxy)-6-(4-fluorophenyl)pyrimidin-2-amine], the IC50 at Adenosine A2A receptor [3] is 2.5 nM and 3.6 nM; on Adenosine A2A receptor [2] (8 nM CGS, read-out: cAMP (nM) 0.1% BSA, 8 nM CGS), 0.9 nM; at Adenosine A2A receptor [2] (setting [4]), 162 nM.
For the compound `Cc1cc(-c2c(OCc3cccc(C(C)(C)C#N)n3)nc(N)nc2-c2ccc(F)cc2)cc(C(F)F)n1` [Example 230, 2-(6-(((2-amino-5-(2-(difluoromethyl)-6-methylpyridin-4-yl)-6-(4-fluorophenyl)pyrimidin-4-yl)oxy)methyl)pyridin-2-yl)-2-methylpropanenitrile], the IC50 in assay [1] was 37.6 nM; in assay [1] (Homo sapiens), 32.4 nM; on Adenosine A2A receptor [2] (setting [4]) it was 7 nM and 40 nM and 64 nM.
On to `Cc1cc(-c2c(OCc3ncccc3C(C)(C)O)nc(N)nc2-c2ccc(F)cc2)cc(C(F)F)n1` [Example 238], for which the IC50 came to 36.3 nM in assay [1] (Homo sapiens) and 313 nM at Adenosine A2A receptor [2] (setting [4]).
As for `Cc1cc(-c2c(OCc3nnn(C)n3)nc(N)nc2-c2ccc(F)cc2)cc(C(F)F)n1` [Example 241, 5-(2-(difluoromethyl)-6-methylpyridin-4-yl)-4-(4-fluorophenyl)-6-((2-methyl-2H-tetrazol-5-yl)methoxy)pyrimidin-2-amine], the figures for the IC50 (in assay [1] (Homo sapiens); at Adenosine A2A receptor [2] (setting [4])) were 221 nM and 213 nM, respectively.
For the compound `Cc1cc(-c2c(OCc3cc(C(C)(C)C#N)ccn3)nc(N)nc2-c2ccc(F)cc2)cc(C(F)F)n1` [Example 257, 2-(2-(((2-amino-5-(2-(difluoromethyl)-6-methylpyridin-4-yl)-6-(4-fluorophenyl)pyrimidin-4-yl)oxy)methyl)pyridin-4-yl)-2-methylpropanenitrile], the IC50 in assay [1] (Homo sapiens) is 19 nM; on Adenosine A2A receptor [2] (setting [4]), 250 nM and 171 nM.
With `Cc1cc(-c2c(OCc3cccc(C(C)(C)C(=O)O)n3)nc(N)nc2-c2ccc(F)cc2)cc(C(F)F)n1` [Example 263, 2-(6-(((2-amino-5-(2-(difluoromethyl)-6-methylpyridin-4-yl)-6-(4-fluorophenyl)pyrimidin-4-yl)oxy)methyl)pyridin-2-yl)-2-methylpropanoic acid], the IC50 is 114 nM in assay [1]; 82 nM in assay [1] (Homo sapiens); 33 nM and 168 nM and 95 nM and 126 nM at Adenosine A2A receptor [2] (setting [4]).
The compound `Cc1cc(-c2c(OCc3ccnc(N4CC(C)(O)C4)n3)nc(N)nc2-c2ccc(F)cc2)cc(C(F)F)n1` [Example 266, 1-(4-(((2-amino-5-(2-(difluoromethyl)-6-methylpyridin-4-yl)-6-(4-fluorophenyl)pyrimidin-4-yl)oxy)methyl)pyrimidin-2-yl)-3-methylazetidin-3-ol] had an IC50 in assay [1] (Homo sapiens) of 4910 nM.
`Cc1cc(-c2c(OCc3ccn(CC(C)(C)C(=O)O)n3)nc(N)nc2-c2ccc(F)cc2)cc(C(F)F)n1` [Example 267, 3-(3-(((2-amino-5-(2-(difluoromethyl)-6-methylpyridin-4-yl)-6-(4-fluorophenyl)pyrimidin-4-yl)oxy)methyl)-1H-pyrazol-1-yl)-2,2-dimethylpropanoic acid] gave an IC50 in assay [1] (Homo sapiens) of 5580 nM.
On to `Cc1cc(-c2c(OCc3cccc(N(C)C)n3)nc(N)nc2-c2ccc(F)cc2)cc(C(F)F)n1` [Example 282, 5-(2-(difluoromethyl)-6-methylpyridin-4-yl)-4-((6-(dimethylamino)pyridin-2-yl)methoxy)-6-(4-fluorophenyl)pyrimidin-2-amine], for which the IC50 is 50 nM in assay [1] (Homo sapiens); 90 nM and 21 nM and 100 nM at Adenosine A2A receptor [2] (setting [4]).
In the case of `Cc1cc(-c2c(OC3CCn4ccnc43)nc(N)nc2-c2ccc(F)cc2)cc(C(F)F)n1` (stereo not shown) [Example 284, 5-(2-(difluoromethyl)-6-methylpyridin-4-yl)-4-((6,7-dihydro-5H-pyrrolo[1,2-a]imidazol-7-yl)oxy)-6-(4-fluorophenyl)pyrimidin-2-amine], the IC50 in assay [1] (Homo sapiens) is 392 nM; on Adenosine A2A receptor [2] (setting [4]) it was 382 nM and 289 nM.
As for `Cc1cc(-c2c(OCc3ccnnc3)nc(N)nc2-c2ccc(F)cc2)cc(C(F)F)n1` [Example 285, 5-(2-(difluoromethyl)-6-methylpyridin-4-yl)-4-(4-fluorophenyl)-6-(pyridazin-4-ylmethoxy)pyrimidin-2-amine], the IC50 in assay [1] (Homo sapiens) was 179 nM; on Adenosine A2A receptor [2] (setting [4]), 378 nM and 272 nM.
With `CCn1nnnc1COc1nc(N)nc(-c2ccc(F)cc2)c1-c1cc(C)nc(C(F)F)c1` [Example 295, 5-(2-(difluoromethyl)-6-methylpyridin-4-yl)-4-((1-ethyl-1H-tetrazol-5-yl)methoxy)-6-(4-fluorophenyl)pyrimidin-2-amine], the IC50 on Adenosine A2A receptor [3] is 7.4 nM; on Adenosine A2A receptor [2] (setting [4]) it was 175 nM and 69 nM and 201 nM.
As to `Cc1cc(-c2c(OCc3ccnc(OCCO)n3)nc(N)nc2-c2ccc(F)cc2)cc(C(F)F)n1` [Example 297, 2-((4-(((2-amino-5-(2-(difluoromethyl)-6-methylpyridin-4-yl)-6-(4-fluorophenyl)pyrimidin-4-yl)oxy)methyl)pyrimidin-2-yl)oxy)ethan-1-ol], the IC50 is 521 nM in assay [1] (Homo sapiens); 278 nM and 228 nM on Adenosine A2A receptor [2] (setting [4]).
`Cc1cc(-c2c(OCc3cccc(OCCO)n3)nc(N)nc2-c2ccc(F)cc2)cc(C(F)F)n1` [Example 305]: the IC50 is 61.7 nM in assay [1] (Homo sapiens) and 196 nM at Adenosine A2A receptor [2] (setting [4]).
